Two molecules from article PMC7447632, “Highly functionalized β-lactams and 2-ketopiperazines as TRPM8 antagonists with antiallodynic activity” (Scientific Reports, 2020) can be followed below.

Type in all cases: cell-based
The test system of series [1] is A549 (lung carcinoma, NSCLC). Description: SRB cytotoxicity assay, A549. The following applies: 72 h, SRB; for TGI A549: total growth inhibition; for TGI A549 / CC50: unit inferred; for GI50 / CC50: Homo sapiens, A549; for CC50: read-out: LC50 A549. The method, then:
(§1) Human tumor cell lines used in this study were purchased from the ATCC. A-549 (CCL-185), lung carcinoma; HT-29 (HTB-38), colorectal adenocarcinoma; MDA-MB-231 (HTB-26), breast adenocarcinoma; PSN1, pancreas adenocarcinoma.
(§2) All cell lines were maintained in DMEM (Dulbecco’s Modified Eagle's Medium) culture medium supplemented with 10% FBS (Fetal Bovine Serum), 100 Units/mL penicillin/streptomycin at 37 °C, 5% CO2 and 95% humidity.
(§3) Triplicate cultures were incubated for 72 h in the presence or absence of test compounds in dose–response curves (10 concentrations, typically ranging from 10 to 0.0026 µg/mL). A colorimetric assay using sulforhodamine B (SRB) was adapted for quantitative measurement of cell growth and cytotoxicity. A more detailed information on this assay is provides in the supplementary information. GI50 is the compound concentration that produces 50% inhibition on cell growth as compared to control cells.
(§4) In vitro bioassays for the detection of antitumor activity
(§5) The aim of this assay is to evaluate the in vitro cytostatic (ability to delay or arrest tumor cell growth) or cytotoxic (ability to kill tumor cells) activity of the samples […]
(§6) Name Nº ATCC Species Tissue Characteristics
(§7) A549 CCL-185 human lung lung carcinoma (NSCLC)
(§8) HT29 HTB-38 human colon colorectal adenocarcinoma
(§9) MDA-MB-231 HTB-26 human breast breast adenocarcinoma
(§10) PSN1 CRM-CRL-3211 human pancreas pancreas adenocarcinoma […]
(§11) A colorimetric assay, using Sulforhodamine B (SRB) reaction has been adapted to provide a quantitative measurement of cell growth and viability (following the technique described by Skehan et al. J. Natl. Cancer Inst. 1990, 82, 1107-1112 […]
(§12) This form of assay employs 96-well cell culture microplates following the standards of the American National Standards Institute and the Society for Laboratory […]
(§13) used in this study were obtained from the American Type Culture Collection (ATCC) and derive from different types of human cancer.
(§14) A549, HT29, MDA-MB-231 and PSN1 cells were maintained in Dulbecco’s
(§15) Modified Eagle Medium (DMEM) supplemented with 10% Fetal Bovine Serum (FBS), 2mM L-glutamine, 100 U/mL penicillin, and 100 U/mL streptomycin at 37 °C, 5% CO2 and 98% humidity. For the experiments, cells were harvested from subconfluent cultures using trypsinization and resuspended in fresh medium before counting and […]
(§16) A549, HT29, MDA-MB-231 and PSN1 cells were seeded in 96 well microtiter plates, at 5000 cells per well in aliquots of 150 µL, and allowed to attach to the plate surface for 18 hours (overnight) in drug free medium. After that, one control (untreated) plate of each cell line was fixed (as described below) and used for time zero reference value. Culture plates were then treated with test compounds (50 µL aliquots of 4X stock […]
(§17) solutions in complete culture medium plus 4% DMSO) using ten 2/5 serial dilutions (concentrations ranging from 10 to 0.003 µg/mL) and triplicate cultures (1% final concentration in DMSO). After 72 hours treatment, the antitumor effect was measured by using the SRB methodology: Briefly, cells were washed twice with PBS, fixed for 15 min in 1% glutaraldehyde solution at room temperature, rinsed twice in PBS, and stained in 0.4% SRB solution for 30 min at room temperature. Cells were then rinsed several times with 1% acetic acid solution and air-dried at room temperature. SRB was then extracted in 10 mM trizma base solution and the absorbance measured in an automated spectrophotometric plate reader at 490 nm.
(§18) Effects on cell growth and survival were estimated by applying the NCI algorithm (Boyd MR and Paull KD. Drug Dev. Res. 1995, 34, 91-109, DOI:10.1002/ddr.430340203). The values obtained in triplicate cultures were fitted by nonlinear regression to a four-parameters logistic curve by nonlinear regression analysis. . Using the absorbance measurements [time zero, (Tz), control growth, (C), and test growth in the presence of drug at the ten concentration levels (Ti)], the […]
(The SRB assay estimates cell density from bound dye.)

Series [2] deals with MDA-MB-231 (breast adenocarcinoma). Description: SRB cytotoxicity assay, MDA-MB-231. The note with it: 72 h, SRB; for TGI MDA-MB-231: total growth inhibition; for TGI MDA-MB-231 / CC50: unit inferred; for GI50 / CC50: Homo sapiens, MDA-MB-231; for CC50: read-out: LC50 MDA-MB-231. The method, then:
as §1, §2, §3, §4, §5, §6, §7, §8, §9, §10, §11, §12, §13, §14, §15, §16, §17, §18

The subject of series [3] is PSN1 (pancreas adenocarcinoma). Description: SRB cytotoxicity assay, PSN1. The following applies: 72 h, SRB; for TGI PSN1: total growth inhibition; for TGI PSN1 / CC50: unit inferred; for GI50 / CC50: Homo sapiens, PSN1; for CC50: read-out: LC50 PSN1. On the procedure: as §1, §2, §3, §4, §5, §6, §7, §8, §9, §10, §11, §12, §13, §14, §15, §16, §17, §18
For a further series, the system named is 60 tumor cell screen. Description: 60 tumor cell screen at the National Cancer Institute. The following applies: 10 µM concentration. From the text: A number of recent experimental evidences position TRPM channels as important players in cancer growth and progression. Among these channels, the aberrant expression of the TRPM8 subtype has been described in different human malignant tumors, including those of prostate, pancreas, breast, colon, and skin, among others. More importantly, sometimes the TRPM8 overexpression was associated to poor prognosis of cancer patients. […] Based on these precedents, in this work we first aimed at evaluating the antitumor activity of enantiopure compounds 24a and 29a. Initially, we assessed the growth inhibition percentage by a 10 µM concentration of these compounds on a 60 tumor cell screen at the National Cancer Institute (USA).

Series [4] relates to MDA-MB-231 (breast adenocarcinoma). Description: SRB cytotoxicity assay, MDA-MB-231. The note with it: at 10 µg/mL.

Take `C[C@@H]1C(=O)N(C[C@H](Cc2ccccc2)NC(=O)OCc2ccccc2)[C@]1(Cc1ccccc1)C(=O)OCc1ccccc1` [Compound 24a, 4S-Benzyl-4-benzyloxycarbonyl-3S-methyl-1-[(2′S-benzyloxycarbonylamino-3′-phenyl)prop-1′-yl]-2-oxoazetidine]: in series [1], the TGI A549 is over 17.3 µM, halving of growth (GI50) required 3.29 µM and the CC50 was over 17.3 µM. Also, in series [2], the TGI MDA-MB-231 is over 17.3 µM; the 50% growth inhibitory concentration (GI50) (in general, the concentration that inhibits growth by half) was over 17.3 µM; the CC50 is over 17.3 µM. Besides, in series [3], the TGI PSN1 was over 17.3 µM, the GI50 amounted to 5.55 µM and the CC50 is over 17.3 µM. In addition, in the series on 60 tumor cell screen, the “Growth inhibition in 60 tumor cell screen” value is “non-selective, modest cytotoxic effects”. Also, the “Cytotoxic activity against MDA-MB-231” value in series [4] is “no activity”.

`C[C@@H]1C(=O)N(C[C@@H](Cc2ccccc2)NC(=O)OCc2ccccc2)[C@]1(Cc1ccccc1)C(=O)OCc1ccccc1` [Compound 29a, 4S-Benzyl-4-benzyloxycarbonyl-3S-methyl-1-[(2′R-benzyloxycarbonylamino-3′-phenyl)prop-1′-yl]-2-oxoazetidine]: in series [1], the TGI A549 is over 17.3 µM, the concentration for 50% growth inhibition (GI50) was 5.9 µM and the CC50 was over 17.3 µM. Moreover, in series [2], the TGI MDA-MB-231 was over 17.3 µM, the concentration for 50% growth inhibition (GI50) stood at 12.7 µM and the CC50 was over 17.3 µM. Further, in series [3], the TGI PSN1 was over 17.3 µM, growth was halved (GI50) at 6.42 µM and the CC50 was over 17.3 µM. Moreover, the “Growth inhibition in 60 tumor cell screen” value in the series on 60 tumor cell screen was “non-selective, modest cytotoxic effects”.
